Laboratory results: patent US11623927B2, “Substituted [1,2,4]triazolo[1,5-a]pyrimidines for stabilizing microtubules” (THE TRUSTEES OF THE UNIVERSITY OF PENNSYLVANIA, priority 2018, dated 2023)

How the values were obtained:
[1] = test system: acetylated α-tubulin; test: cell-based MT assay: acetylated α-tubulin by ELISA in cell lysates; settings: for Acetylated α-Tubulin: 4 h incubation, ELISA, relative level, average and SD of triplicate; for relative activity in the cell-based MT assay / shape of dose-response: in words; for relative activity in the cell-based MT assay: comparison among tested compounds; for shape of dose-response: see FIG. 1 (compound 22, HEK-293 cells, 4 h)
Description: (§1) The compounds where then evaluated in a cell-based MT assay as described in Kovalevich, Characterization of brain-penetrant pyrimidine-containing molecules with differential microtubule-stabilizing activities developed as potential therapeutic agents for Alzheimer's disease and related tauopathies. J. Pharmacol. Exp. Ther., 2016, 357, 432-50. In summary, acetylated α-tubulin and total α-tubulin levels were determined by ELISA in cell lysates after 4 h of incubation with test compound at either 1 or 10 μM. See, Table 1.

[2] = test system: total α-tubulin; test: cell-based MT assay: total α-tubulin by ELISA in cell lysates; settings: for effect on total tubulin: in words, see FIG. 1 (compound 22, HEK-293 cells, 4 h); for Total α-Tubulin: 4 h incubation, ELISA, relative level, average and SD of triplicate
Description: as §1

[3] = test system: MTs; settings: in words; cited from earlier work
[4] = test system: MTs; settings: in words; versus vincristine, taxol, colchicine; cited from earlier work

Row | SMILES | relative activity in the cell-based MT assay [1] | shape of dose-response [1] | effect on total tubulin [2] | Total α-Tubulin ([2]; 10 μM test compound) | other results
1 | C[C@@H](Nc1c(-c2c(F)cc(OCCCN(C)C)cc2F)c(Cl)nc2ncnn12)C1(C)N=N1 [Compound 21, (R)-5-chloro-6-(4-(3-(dimethylamino)propoxy)-2,6-difluorophenyl)-N-(1-(3-methyl-3H-diazirin-3-yl)ethyl)-[1,2,4]triazolo[1,5-a]pyrimidin-7-amine] | most active | bell-shaped dose-response | profound loss of total tubulin in a dose-dependent manner | – | Acetylated α-Tubulin ([1]; 10 μM test compound): 0.93 ± 0.03
2 | C[C@H](Nc1c(-c2c(F)cc(F)cc2F)c(Cl)nc2ncnn12)C1(C)N=N1 [Compound 14, (S)-5-chloro-N-(1-(3-methyl-3H-diazirin-3-yl)ethyl)-6-(2,4,6-trifluorophenyl)-[1,2,4]triazolo[1,5-a]pyrimidin-7-amine] | – | – | – | 0.94 ± 0.02 | –
3 | CO[C@H]1C[C@H]2CC[C@@H](C1)N2c1c(-c2c(F)cc(F)cc2F)c(Cl)nc2ncnn12 [Compound 2, reference compound] | – | – | – | – | Total α-Tubulin ([2]; 1 μM test compound): 1.12 ± 0.08; binding to MTs versus unpolymerized tubulin heterodimers [3]: binds exclusively to MTs and not to unpolymerized tubulin heterodimers
4 | C[C@H](Nc1c(-c2c(F)cc(OCCCNC(=O)c3ccc(C4(C(F)(F)F)N=N4)cc3)cc2F)c(Cl)nc2ncnn12)C(F)(F)F [Compound 11, (S)—N-(3-(4-(5-chloro-7-((1,1,1-trifluoropropan-2-yl)amino)-[1,2,4]triazolo[1,5-a]pyrimidin-6-yl)-3,5-difluorophenoxy)propyl)-4-(3-(trifluoromethyl)-3H-diazirin-3-yl)benzamide] | – | – | – | 0.88 ± 0.05 | Acetylated α-Tubulin ([1]; 1 μM test compound): 1.30 ± 0.28
5 | CN(C)CCCOc1cc(F)c(-c2c(Cl)nc3ncnn3c2NCC2(C)N=N2)c(F)c1 [Compound 22, 5-chloro-6-(4-(3-(dimethylamino)propoxy)-2,6-difluorophenyl)-N-((3-methyl-3H-diazirin-3-yl)methyl)-[1,2,4]triazolo[1,5-a]pyrimidin-7-amine] | most active | bell-shaped dose-response | profound loss of total tubulin in a dose-dependent manner | – | –
6 | CNCCCOc1cc(F)c(-c2c(Cl)nc3ncnn3c2N[C@@H](C)C(F)(F)F)c(F)c1 [Cevipabulin (1), Cevipabulin] | – | – | – | – | competition for binding to MTs [4]: competes with vincristine but not taxol or colchicine
